Read-outs that look alike come from different tables or passages of the source. Blank lines part the entries; values can stand above or below the molecule they belong to.
Columns and labels:
[1] = system: phosphorylation of MAPKAP-2 in HUT 78 cells; test: p38 MAP Kinase cellular assay: inhibition of phosphorylation of MAPKAP2 in HUT 78 cells; format: cell-based; settings: for IC50: Homo sapiens, HuT78, HUT 78 non-monocyte cell line; for Ratio IC50s in HUT 78 to U937 cells: MAPKAP-2 phosphorylation IC50s
Protocol: (§1) p38 MAP Kinase Cellular Assay: Inhibition of Phosphorylation of MAPKAP2
(§2) U937 or HUT78 cells were plated in RPMI 1640, and were incubated at 37° C., 5% CO2 for 18 hours. 10 mM stocks of compounds were diluted media/0.1% DMSO to give a log or semi-log dilution series. The wells for ‘no treatment’ and ‘anisomycin’ were treated with 0.1% DMSO only. The cells were incubated at 37° C., 5% CO2 for a further 4 hours. Anisomycin was added to all wells except ‘no treatment’ at a final concentration of 10 μM. The cells were incubated at 37° C., 5% CO2 for 30 minutes before harvest. Plates were stood on ice whilst harvesting, and all following steps were carried out at 4° C. The cells were pelleted at 1000 rpm for 10 minutes at 4° C., the media aspirated, and the pellet washed with cold PBS. The pellets were lysed in 120 μl of SDS lysis buffer (62.5 mM Tris, pH 6.8, 2% SDS, 10% glycerol, 50 mM DTT, with protease inhibitors and phosphatase inhibitors added according to the manufacturers' recommendations). After 30 minutes on ice, the samples were sonicated for 5 seconds before centrifugation at 13,000 rpm 4° C. for 10 minutes to remove cell debris. 10 μl of the resulting gel samples were loaded per lane on NOVEX 4-12% Bis-Tris MOPS gels. Membranes from western transfer of gels were blotted with anti-phospho MAPKAP2, anti-phospho HSP27 and anti GAPDH according to the manufacturers' Instructions. Signal was visualised using HRP-Hnked anti-rabbit or anti-mouse antibodies, ECL reagent and ECL film. IC50 values for the various compounds were visualised from the resulting photographic images, using both band-shift and signal intensity.

[2] = system: phosphorylation of MAPKAP-2 in U937 cells; test: p38 MAP Kinase cellular assay: inhibition of phosphorylation of MAPKAP2 in U937 cells; format: cell-based; settings: for IC50: Homo sapiens, U-937, U937 monocyte cell line, read-out: Inhibition of phosphorylation of MAPKAP-2 in U937 cells (IC50, nM) (monocyte cell line)
Protocol: as §1, §2

recombinant hCE-1 = biological target: T1, recombinant hCE-1 (Homo sapiens, UniProt P23141); test: HCE-1 carboxylesterase assay; format: in vitro ADME; settings: result in words
T1 sequence (P23141 18-567): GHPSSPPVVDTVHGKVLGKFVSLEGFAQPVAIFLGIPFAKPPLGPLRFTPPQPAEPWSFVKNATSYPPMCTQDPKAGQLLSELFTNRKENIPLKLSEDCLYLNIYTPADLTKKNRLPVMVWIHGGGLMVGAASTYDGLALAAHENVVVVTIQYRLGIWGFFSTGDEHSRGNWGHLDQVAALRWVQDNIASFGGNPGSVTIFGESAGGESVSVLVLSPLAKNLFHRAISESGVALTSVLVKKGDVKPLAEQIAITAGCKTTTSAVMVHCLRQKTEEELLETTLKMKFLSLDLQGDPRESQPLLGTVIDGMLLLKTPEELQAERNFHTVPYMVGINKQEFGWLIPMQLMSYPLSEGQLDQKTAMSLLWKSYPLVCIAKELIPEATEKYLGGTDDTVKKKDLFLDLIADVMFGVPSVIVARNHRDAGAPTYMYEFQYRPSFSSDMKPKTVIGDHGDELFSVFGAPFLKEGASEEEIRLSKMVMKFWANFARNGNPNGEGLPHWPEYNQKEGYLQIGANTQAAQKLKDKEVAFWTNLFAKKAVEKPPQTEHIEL
Protocol: HCE-1 Carboxylesterase Assay
Hydrolysis of esters to the corresponding carboxylic acids by hCE-1 can be measured using the following procedure. At zero time, 100 μl of recombinant hCE-1 at a concentration of 6 μg/mL in phosphate assay buffer (K2PO4 100 mM, KCl 40 mM, pH 7.4) was added to an equal volume of assay buffer containing 5 μM ester substrate. After thorough mixing, triplicate samples were incubated for 0, 20 or 80 minutes at 37° C. At the appropriate time, hydrolysis was stopped by the addition of 600 μl of acetonitrile. For zero time samples, the acetonitrile was added prior to the enzyme. The samples were analysed for the ester and its corresponding carboxylic acid at room temperature by LCMS (Sciex API 3000, HP1100 binary pump, CTC PAL). Chromatography was based on a […] (75×2.1 mm) column and a mobile phase of 5-95% acetonitrile in water/0.1% formic add. Levels of the acid, the hydrolysis product, after 80 minutes are expressed in ng/mL.

U937 cells = test: U937 cell inhibition assay (WST-1 proliferation); format: cell-based; settings: for IC50: Homo sapiens, U-937
Protocol: (§3) U937 and HUT Cell Inhibition Assay
(§4) Cancer cell lines (U937 and HUT) growing in log phase were harvested and seeded at 1000-2000 cells/well (100 μl final volume) into 96-well tissue culture plates. Following 24 hours of growth cells were treated with compound. Plates were then re-Incubated for a further 72-96 hours before a WST-1 cell viability assay was conducted according to the suppliers (Roche Applied Science) instructions.
(§5) Data were expressed as a percentage inhibition of the control, measured in the absence of Inhibitor, as follows: % inhibition=100−[(S^i/S^o)×100] where S^i is the signal in the presence of Inhibitor and S^o s the signal in the presence of DMSO.
(§6) Dose response curves were generated from 8 concentrations (top final concentration 10 μM, with 3-fold dilutions), using 6 replicates.
(§7) IC50 values were determined by non-linear regression analysis, after fitting the results to the equation for sigmoidal dose response with variable slope (% activity against log concentration of compound), using Graphpad Prism software.

HUT 78 cells = test: HUT cell inhibition assay (WST-1 proliferation); format: cell-based; settings: Table 5
Protocol: as §3, §4, §5, §6, §7

[3] = biological target: histone deacetylase activity (HeLa nuclear extract); test: Histone deacetylase activity (Fluor de Lys, HeLa nuclear extract); format: biochemical; settings: read-out: Inhibition of HDAC (IC50 nM)
Protocol: Histone Deacetylase Activity
The ability of compounds to inhibit histone deacetylase activities was measured using the commercially available HDAC fluorescent activity assay from Biomol. In brief, the Fluor de Lys™ substrate, a lysine with an epsilon-amino acetylation, is incubated with the source of histone deacetylase activity (HeLa nuclear extract) in the presence or absence of inhibitor. Deacetylation of the substrate sensitises the substrate to Fluor de Lys™ developer, which generates a fluorophore. Thus, incubation of the substrate with a source of HDAC activity results in an increase in signal that is diminished in the presence of an HDAC inhibitor.
Data are expressed as a percentage of the control, measured in the absence of inhibitor, with background signal being subtracted from all samples, as follows: % activity=[(S^i−B)/(S^o−B)]×100 where S^i is the signal in the presence of substrate, enzyme and Inhibitor, S^o is the signal in the presence of substrate, enzyme and the vehicle in which the inhibitor is dissolved, and B is the background signal measured in the absence of enzyme.
IC50 values were determined by non-linear regression analysis, after fitting the results of eight data points to the equation for sigmoidal dose response with variable slope (% activity against log concentration of Compound), using Graphpad Prism software.
Histone deacetylase activity from crude nuclear extract derived from HeLa cells was used for screening. The preparation, purchased from 4C (Seneffe, Belgium), was prepared from HeLa cells harvested whilst in exponential growth phase. The nuclear extract was prepared according to the methodology described by J. D. Dignam, Nucl. Acid. Res., 1983, 11, 1475-1489, snap frozen in liquid nitrogen and stored at −80° C. The final buffer composition was 20 mM Hepes, 100 mM KCl, 0.2 mM EDTA, 0.5 mM DTT, 0.2 mM PMSF and 20% (v/v) glycerol.

IC50 ([1]; Table 3): 1 nM | IC50 ([2]; Table 3): 1 nM
Structure (SMILES): Nc1c(C(=O)c2ccc(F)cc2F)ccc(=O)n1-c1c(F)cc(OCCC[C@H](N)C(=O)OC2CCCC2)cc1F [Compund III, reference compound]
Ratio IC50s in HUT 78 to U937 cells ([1]; Table 3): 1

IC50 ([1]; Table 2): 10000 nM | IC50 ([2]; Table 2): 100 nM
Structure (SMILES): Nc1c(C(=O)c2ccc(F)cc2F)ccc(=O)n1-c1ccc(CCNC2(C(=O)OC3CCCC3)CCCC2)cc1 [Example 3]
Ratio IC50s in HUT 78 to U937 cells ([1]; Table 2): 100 | potency in monocytic versus non monocytic cell lines (MAPKAP-2 phosphorylation) ([2]; U937 versus HUT 78): 100 times

IC50 ([1]; Table 3): 100 nM | IC50 ([2]; Table 3): 5 nM
Structure (SMILES): CC(N)(CCCOc1cc(F)c(-n2c(N)c(C(=O)c3ccc(F)cc3F)ccc2=O)c(F)c1)C(=O)OC1CCCC1 (centres unmarked) [Example 5]
Ratio IC50s in HUT 78 to U937 cells ([1]; Table 3): 20 | macrophage selectivity (MAPKAP-2 phosphorylation, U937 versus HUT 78) ([2]; result in words): macrophage selective

hydrolysis by hCE-1 (recombinant hCE-1): hydrolysed by hCE-1 | IC50 (U937 cells; Table 4, head prints no unit, same values in Table 5 as IC50 nM, read-out: Inhibition of proliferation in U937 cells): 180 nM | IC50 (U937 cells; Table 5, U937 cells, read-out: Inhibition of proliferation in U937 cells (IC50 nM)): 180 nM | Ratio cell IC50s to enzyme IC50 (U937 cells; Table 4, U937 proliferation IC50 to HDAC enzyme IC50): 0.043 | IC50 ([3]; Table 4, Acid = carboxylic acid hydrolysis product of the ester): 6120 nM | IC50 ([3]; Table 4, compound as such, Ester for Examples 7 and 9): 4200 nM | IC50 ([3]; Table 5, Acid = carboxylic acid hydrolysis product of the ester): 6120 nM | IC50 ([3]; Table 5, compound as such, Ester for Examples 7 and 9): 4200 nM
Structure (SMILES): O=C(CCc1ccc(CNC2(C(=O)OC3CCCC3)CCCC2)cc1)NO [Example 7, Cyclopentyl 1-({4-[3-(hydroxyamino)-3-oxopropyl]benzyl}amino)cyclopentanecarboxylate]
potency in monocytic (U937) versus non monocytic (Hut78) cell lines (proliferation) (U937 cells; U937 versus Hut78): 30 times | potency in the cellular (U937 proliferation) assay compared with the parent compound (U937 cells; versus Compound IV): significantly more potent than the parent compound | IC50 (HUT 78 cells; Homo sapiens, HuT78, HUT 78 cells): 6200 nM | Ratio IC50s in HUT 78 to U937 cells (HUT 78 cells; proliferation IC50s): 34

— patent US9636409B2, “Enzyme and receptor modulation using covalent conjugates of alpha,alpha-disubstituted glycine esters” (GlaxoSmithKline Intellectual Property Development Limited, priority 2008, dated 2017)
